ED50 data for two compounds are collected here from ChEMBL document CHEMBL3244037, “6-Aryl-4H-s-triazolo[4,3-a][1,4]benzodiazepines. Influence of 1-substitution on pharmacological activity” (J Med Chem, 1979).

Assay [1] relates to Mus musculus. As to the kind of experiment: Anticonvulsant activity in ip dosed albino CF1 mouse assessed as protection against pentylenetetrazole-induced clonic convulsions. It counts as functional.
Assay [2] deals with Mus musculus. Kind of assay: Hypothermic activity in ip dosed albino CF1 mouse assessed as effect on body temperature measured after 45 mins. The conditions noted are these: 0.75 h. It counts as functional.
The test system of assay [3] is Mus musculus. As to the kind of experiment: Inhibition of apomorphine-induced cage climbing in ip dosed albino CF1 mouse compound administered prior to challenge measured for 5 mins after 5 mins of challenge. Format: functional.
In assay [4] the test system is Mus musculus. As to the kind of experiment: Anticonvulsant activity in ip dosed albino CF1 mouse assessed as inhibition of bicucullin-induced tonic extensor convulsions. Format: functional.
In assay [5] the test system is Mus musculus. Kind of assay: […] activity in ip dosed albino CF1 mouse assessed as potentiation of gamma-butyrolactone-induced sleep. It counts as functional.
In assay [6] the test system is Mus musculus. Kind of assay: Reduction of hypoxic stress in ip dosed albino CF1 mouse assessed as prolongation of hypoxic survival time. Format: functional.
Assay [7] concerns Mus musculus. Kind of assay: Inhibition of amphetamine aggregation toxicity in ip dosed albino CF1 mouse compound administered 1 hr prior to challenge measured after 2 hrs. It counts as functional.
For assay [8], the system named is Mus musculus. Kind of assay: Potentiation of yohimbine toxicity in ip dosed aggregated albino CF1 mouse. It counts as organism-based.
Assay [9] has as its system Mus musculus. As to the kind of experiment: Inhibition of oxotremorine-induced hypothermia in ip dosed albino CF1 mouse. It counts as functional.
For assay [10], the system named is Mus musculus. As to the kind of experiment: Potentiation of apomorphine-induced gnawing in ip dosed albino CF1 mouse. It counts as organism-based.

Each structure is given as a SMILES string. Where only a bound is given, the exact number is not on record here.

In the case of `OCc1nnc2n1-c1ccc(Cl)cc1C(c1ccccc1Cl)=NC2`, the ED50 (commonly the dose that gives a 50% effect, or the effect in half of the subjects) in assay [1] was 0.045 mg/kg; in [2], 7 mg/kg; in [3] it was greater than 50 mg/kg; in assay [4], 0.02 mg/kg; in [5], 0.01 mg/kg; in [6], 0.06 mg/kg. Moreover, the median effective dose (ED50) in assay [7], in assay [8], in [9] and in assay [10] was greater than 50 mg/kg each time.
Take `CN(C)CCOc1nnc2n1-c1ccc(Cl)cc1C(c1ccccc1)=NC2`: the 50% effective dose (ED50) is 2.2 mg/kg in assay [1]; greater than 50 mg/kg in assay [2]; greater than 50 mg/kg in assay [3]; 1.1 mg/kg in assay [4]; 0.2 mg/kg in [5]; 0.8 mg/kg in [6]. Also, the ED50 in assay [7] is greater than 50 mg/kg; in [8], greater than 50 mg/kg; in assay [9] it was 25 mg/kg; in assay [10] it was greater than 50 mg/kg.
